Data as given in ChEMBL document CHEMBL1136837, “Unified QSAR approach to antimicrobials. 4. Multi-target QSAR modeling and comparative multi-distance study of the giant components of antiviral drug-drug complex networks” (Bioorg Med Chem, 2009).

Tests used:
Human betaherpesvirus 5 = test: Antiviral activity against Human cytomegalovirus; assay type: functional, organism-based; conditions: Human betaherpesvirus 5
[1] = tested on: Human immunodeficiency virus 1; test: Antiviral activity against HIV1; assay type: functional, organism-based
Human alphaherpesvirus 2 = test: Antiviral activity against Herpes simplex virus 2; assay type: functional, organism-based; conditions: Human alphaherpesvirus 2
Human alphaherpesvirus 3 = test: Antiviral activity against Varicella zoster virus; assay type: functional, organism-based
Human alphaherpesvirus 1 = test: Antiviral activity against Herpes simplex virus 1; assay type: functional, organism-based; conditions: Human alphaherpesvirus 1
Vaccinia virus = test: Antiviral activity against Vaccinia virus; assay type: functional, organism-based, Orthopoxvirus vaccinia; conditions: Orthopoxvirus vaccinia
[2] = tested on: unidentified influenza virus; test: Antiviral activity against influenza virus; assay type: functional, organism-based

Structure (SMILES) | IC50 (Human betaherpesvirus 5) | IC50 (Human alphaherpesvirus 2) | IC50 (Human alphaherpesvirus 1) | other results
CC(C)Oc1ccc(NC(=O)N2CCC[C@H]2C(=O)N2CC[C@H]3[C@H]2[C@H](C)C(=O)N3C(=O)C2CC2)cc1 | 0.18 µM | – | – | –
C[C@@H]1C(=O)N(C(=O)C2CC2)[C@H]2CCN(C(=O)[C@@H]3CCCN3C(=O)Nc3cccc(Cl)c3)[C@H]12 | 0.65 µM | – | – | –
C[C@@H]1C(=O)N(C(=O)C2CC2)[C@H]2CCN(C(=O)[C@@H]3CCCN3C(=O)c3ccc(Cl)cc3)[C@H]12 | 1.4 µM | – | – | –
C[C@@H]1C(=O)N(C(=O)C2CC2)[C@H]2CCN(C(=O)[C@@H]3CCCN3C(=O)Nc3cccc4ccccc34)[C@H]12 | 0.65 µM | – | – | –
CCOC(=O)Cc1c(N)nc(N)n(CCOCP(=O)(O)O)c1=O | 0.00015 µM | 1.2 nM | 0.0012 µM | IC50 [1]: 0.0003 µM; IC50 (Human alphaherpesvirus 3): 0.15 nM; IC50 (Vaccinia virus): 1.2 nM
O=c1[nH]c(=O)n([C@H]2C[C@H](O)[C@]3(CO)C[C@H]23)cc1/C=C/Br | – | 291000 nM | 6.41 µM | –
Nc1nc(N)c(Br)c(OCCOCP(=O)(O)O)n1 | 0.00015 µM | 0.7 nM | – | IC50 (Human alphaherpesvirus 3): 0.15 nM; IC50 (Vaccinia virus): 0.7 nM
Nc1nc(N)c(Cl)c(OCCOCP(=O)(O)O)n1 | – | 1.2 nM | – | IC50 (Vaccinia virus): 1.2 nM
CC(C)/C=C1\N=C(CC(C)C)C(=O)N(O)C1=O | – | – | – | IC50 [2]: 5.5 µM
O=C(O)/C=C/C(=O)c1ccccc1 | – | – | – | IC50 [2]: 500 µM
O=C1Cc2ccccc2CC(=O)N1O | – | – | – | IC50 [2]: 1000 µM
O=C(Nc1cccc(C(=O)O)c1)Nc1ccc2c(C(=O)c3ccccc3)c(O)n(O)c2c1 | – | – | – | IC50 [2]: 3 µM
CCC(=O)c1c(O)n(O)c2cc(NC(=O)Nc3ccccc3Cl)ccc12 | – | – | – | IC50 [2]: 50 µM
Cc1nn([C@H]2C[C@H](O)[C@@H](CO)S2)c(=O)nc1O | 200 µM | 3300 nM | 18 µM | IC50 (Human alphaherpesvirus 3): 5000 nM; IC50 (Vaccinia virus): 2200 nM
CCCc1nn([C@H]2C[C@H](O)[C@@H](CO)S2)c(=O)[nH]c1=O | 40 µM | – | – | –
CCc1nn([C@H]2C[C@H](O)[C@@H](CO)S2)c(=O)nc1O | 40 µM | 200000 nM | 120 µM | IC50 (Human alphaherpesvirus 3): 40000 nM; IC50 (Vaccinia virus): 200000 nM

Structure (SMILES) | IC50 (Human betaherpesvirus 5) | IC50 (Human alphaherpesvirus 2) | IC50 (Human alphaherpesvirus 1) | other results
CCC(=O)c1c(O)n(O)c2cc(NC(=O)Nc3ccc(Cl)cc3)ccc12 | – | – | – | IC50 [2]: 38 µM
Nc1cc(OCCOCP(=O)(O)O)nc(N)n1 | – | 0.0909 nM | 2.46e-05 µM | –
Nc1nc(NC2CC2)cc(=O)n1CCOCP(=O)(O)O | – | 0.0526 nM | 5.26e-05 µM | IC50 [1]: 0.000329 µM; IC50 (Human alphaherpesvirus 3): 0.164 nM
CC(C)Oc1cccc(S(=O)(=O)N2CCC[C@H]2C(=O)N2CC[C@H]3[C@H]2[C@H](C)C(=O)N3C(=O)C2CC2)c1 | 65 µM | – | – | –
Cc1c(C(=O)N2CCC[C@H]2C(=O)N2CC[C@H]3[C@H]2[C@H](C)C(=O)N3C(=O)C2CC2)sc2ccc(Cl)cc12 | 0.19 µM | – | – | –
C[C@@H]1C(=O)N(C(=O)C2CC2)[C@H]2CCN(C(=O)[C@@H]3CCCN3C(=O)Nc3ccc(Cl)cc3)[C@H]12 | 0.26 µM | – | – | –
C[C@@H]1C(=O)N(C(=O)C2CC2)[C@H]2CCN(C(=O)[C@@H]3CCCN3S(=O)(=O)c3ccc4ccccc4c3)[C@H]12 | 0.19 µM | – | – | –
Cc1c(N)nc(N)nc1OCCOCP(=O)(O)O | 0.00072 µM | 1.2 nM | 0.0012 µM | IC50 (Human alphaherpesvirus 3): 0.018 nM; IC50 (Vaccinia virus): 0.86 nM
O=c1[nH]c(=O)n([C@H]2C[C@H](O)[C@]3(CO)C[C@H]23)cc1I | – | 9060 nM | 275 µM | –
C[C@@H]1C(=O)N(C(=O)C2CC2)[C@H]2CCN(C(=O)[C@@H]3CCCN3C(=O)Nc3ccccc3)[C@H]12 | 1.4 µM | – | – | –
Nc1cc(OC[C@H](CO)OCP(=O)(O)O)nc(N)n1 | – | 0.017 nM | 4.8e-06 µM | IC50 (Vaccinia virus): 0.0065 nM
CC(=O)OC[C@H]1S[C@@H](n2nc(C)c(=S)[nH]c2=O)C[C@@H]1OC(C)=O | – | 8000 nM | 8 µM | –
O=c1[nH]c(=O)n([C@H]2C[C@H](O)[C@]3(CO)C[C@H]23)cc1Br | – | 2200 nM | 1.23 µM | –
C[C@@H]1C(=O)N(C(=O)C2CC2)[C@H]2CCN(C(=O)[C@@H]3CCCN3C(=O)c3cccc4ccccc34)[C@H]12 | 0.89 µM | – | – | –
Cc1cn(/C=C2/CC2(CO)CO)c(=O)[nH]c1=O | 420 µM | 420000 nM | 420 µM | IC50 (Human alphaherpesvirus 3): 420000 nM
CC(=O)c1c(O)n(O)c2cc(NC(=O)Nc3cccc(C(=O)O)c3)ccc12 | – | – | – | IC50 [2]: 14 µM
